The source of these data is patent US20260337214A1, “IRON BASED MRI PROBES” (The General Hospital Corporation, priority 2022, published 2026).

What all share (assay type): physicochemical
Data set [1] can be described thus: T1-relaxivity (r1) of Fe3+ versus Fe2+ complex at pH 7.4. To be noted: for relaxivity r1: normalized to Fe concentration, Fe^2+ formed in situ with excess sodium ascorbate. The source says:
FIG. 7 compares the relaxivity (r1; the Fe induced increase in T1 relaxation rate (R1) normalized to Fe concentration in mM) recorded for Fe^3+-CDTA-Ph-3,5-CF3 and Fe^2+-CDTA-Ph-3,5-CF3 at pH 7.4.
(§1) The term “relaxivity” as used herein, refers to the increase in either of the MR quantities 1/T1 or 1/T2 per millimolar (mM) concentration of paramagnetic ion or contrast agent, which quantities may be different if the contrast agent contains a multiplicity of paramagnetic ions, wherein T1 is the longitudinal or spin-lattice relaxation time, and T2 is the transverse or spin-spin relaxation time of water protons or other imaging or spectroscopic nuclei, including protons found in molecules other than water. Relaxivity is expressed in units of mM^−1s^−1.
FIG. 7 compares the relaxivity (r1; the Fe induced increase in T1 relaxation rate (R1) normalized to Fe concentration in mM) recorded for Fe^3+-CDTA-Ph-3,5-CF3 and Fe^2+-CDTA-Ph-3,5-CF3 at pH 7.4. The Fe^2+ complex was formed in situ by addition of excess sodium ascorbate. The r1 values for the Fe^3+ complex ([…] mM^−1s^−1) is 7.5-times greater than the sister Fe^2+ complex (2.8±0.003 mM^−1s^−1).

Data set [2] is described as follows: T1-relaxivity (r1) as a function of pH.
Description: FIG. 5A compares the pH-dependence on T1-relaxivity (r1; the Fe induced increase in T1 relaxation rate (R1) normalized to Fe concentration in mM) for the structurally related Fe^3+ complexes Fe-CDTA-Ph-3,5-CF3 and Fe-PyCy2AI.
as §1
FIG. 5, Panel A, compares the pH-dependence on T1-relaxivity (r1; the Fe induced increase in T1 relaxation rate (R1) normalized to Fe concentration in mM) for the structurally related Fe^3+ complexes Fe-CDTA-Ph-3,5-CF3 and Fe-PyCy2AI.

Another data set in a line: Cyclic voltammetry. The following applies: 0.5 M KNO3, GC working, Ag/AgCl reference, Pt counter electrode.
Data set [3] is described as follows: pH-potentiometric titration combined with EDTA competition assay. To be noted: estimated. On the procedure:
The title compound was synthesized in situ by mixing the compound obtained in step 1 with 0.5 molar equiv. Fe2(SO4)3, (i.e., 1 molar equiv. Fe^3+). In one representative sample preparation, used for pH-potentiometry measurements, 7.2 mg (0.011 mmol) Ligand were mixed with 4.4 mg (0.011 mmol Fe) were mixed in 3.4 mL water (with 0.1 M NaCl), and the pH adjusted using 0.1 M NaOH. ESI-MS for [C22H22F6FeN3O7]^−: m/z [M^−]=609.1 (calc.); m/z=609.1(obsv.)
From the titration data (performed in combination with EDTA competition assay at pH 3), a log K=23.7 s estimated for Fe-CDTA-Ph-3,5-CF3.

With `O=C(O)CN(CC(=O)O)C1CCCCC1N(CC(=O)O)CC(=O)Nc1cc(C(F)(F)F)cc(C(F)(F)F)c1.[Fe+2]` (centres unmarked) [Fe^2+-CDTA-Ph-3,5-CF3], the “relaxivity r1” value in data set [1] (pH 7.4) was 2.8 ± 0.003 mM⁻¹ s⁻¹.

One may read the pKa as the negative logarithm of the acid dissociation constant. Regarding `O=C(O)CN(CC(=O)O)C1CCCCC1N(CC(=O)O)CC(=O)Nc1cc(C(F)(F)F)cc(C(F)(F)F)c1.[Fe+3]` (centres unmarked) [Fe-CDTA-Ph-3,5-CF3], the “speciation at pH 7.4” value in data set [2] (pH 7.4) is on record as “dominated by the monomeric complex”. The “r1 (T1-relaxivity), comparison in words” value in data set [2] (pH 7.4, compared with Fe-PyC3A / Fe-PyCy2AI) was “much greater”. For the same molecule, the pKa in data set [2] (r1 vs pH, read-out: pKa of the Fe^3+ water co-ligand) is greater than 7.4; in data set [3] (water, 0.1 m nacl, pH-potentiometric titration, 1 molar equiv. Fe^3+, read-out: pKa (deprotonation of ML to MLH−1)) it was 4.9. Besides, the “oxidation and reduction waves, reversibility” value in the data set “Cyclic voltammetry” (pH 3) is “reversible oxidation and reduction waves”. For the same molecule, in “Cyclic voltammetry” (pH 8), the “separation of oxidation and reduction waves” value was roughly 1 V. In data set [1] (pH 7.4), the “ratio of r1 Fe^3+ complex to Fe^2+ complex” value is given as 7.5 -times. Besides, the “relaxivity r1” value in data set [1] (pH 7.4) amounted to 2.1 ± 0.11 mM⁻¹ s⁻¹. Moreover, in data set [1] (stated in heading), the “ratio of r1 Fe^3+ complex to Fe^2+ complex (heading of Example 5)” value is 10 -fold. For the same molecule, the “log K (Fe^3+ complex stability)” value in data set [3] (pH-potentiometric titration in combination with EDTA competition assay at pH 3) is reported as 23.7.
